Assay results taken from patent US7732444B2, “2-(amino-substituted)-4-aryl pyrimidines and related compounds useful for treating inflammatory diseases” (Millennium Pharmaceuticals, Inc., priority 2004, dated 2010).
pIC50: −log10 of the molar value.

target: T1, full length PKC θ (Homo sapiens, UniProt Q04759); test: PKC-theta isoform inhibition assay (HTRF, 384 well plate); type: biochemical; conditions: full length PKC θ at 27 pM, peptide substrate 300 nM + 3 μM ATP, HTRF readout
T1 construct: 15 μL of full length PKC θ (Panvera Corporation); purchased Panvera Corporation
Description: An in vitro assay for detecting and measuring inhibition activity against PKC-theta isoform by candidate pharmacological agents is useful for evaluating and selecting a compound that modulates PKC-theta isoform. An IC50 value can be calculated after running the assay. Following is an assay protocol for measuring PKC-theta isoform.
Per well of a 384 well plate, compounds at various concentrations in 5 μL of 20% DMSO were pre-incubated for about 30 minutes at about 25° C. with 15 μL of full length PKC θ (Panvera Corporation) at 27 pM in an assay buffer (25 mM Hepes, pH 7.5, 5 mM DTT, 10 mM MgCl2, 10 mM 2-glycerophosphate, 12.5 μg/mL 1,2-dioleoyl-rac-glycerol, 10 μg/mL L-α-phosphatidyl-L-serine, 0.1% Bovine Serum Albumin). 10 μL of peptide substrate (biotin-(CH2)6— RFARKGSLRQKNV —CONH2) at 300 nM+3 μM ATP were added to each well and incubated for about 1 hour before quenching with 10 μL of 250 mM EDTA. 40 μL of detection buffer (25 mM Hepes, pH 7.5, 100 mM KF, 0.1% Bovine Serum Albumin, 0.01% Tween20) containing 2 nM anti-phospho antibody 2B9 (MBL International) labeled with europium cryptate (Cis-Bio International) and 0.0064 μg/mL streptavidin-allophycocyanin (Prozyme) was added to each well and incubated for two hours. Signal was then read on a Discovery HTRF (Packard).

T1 sequence (Q04759 whole entry, canonical isoform): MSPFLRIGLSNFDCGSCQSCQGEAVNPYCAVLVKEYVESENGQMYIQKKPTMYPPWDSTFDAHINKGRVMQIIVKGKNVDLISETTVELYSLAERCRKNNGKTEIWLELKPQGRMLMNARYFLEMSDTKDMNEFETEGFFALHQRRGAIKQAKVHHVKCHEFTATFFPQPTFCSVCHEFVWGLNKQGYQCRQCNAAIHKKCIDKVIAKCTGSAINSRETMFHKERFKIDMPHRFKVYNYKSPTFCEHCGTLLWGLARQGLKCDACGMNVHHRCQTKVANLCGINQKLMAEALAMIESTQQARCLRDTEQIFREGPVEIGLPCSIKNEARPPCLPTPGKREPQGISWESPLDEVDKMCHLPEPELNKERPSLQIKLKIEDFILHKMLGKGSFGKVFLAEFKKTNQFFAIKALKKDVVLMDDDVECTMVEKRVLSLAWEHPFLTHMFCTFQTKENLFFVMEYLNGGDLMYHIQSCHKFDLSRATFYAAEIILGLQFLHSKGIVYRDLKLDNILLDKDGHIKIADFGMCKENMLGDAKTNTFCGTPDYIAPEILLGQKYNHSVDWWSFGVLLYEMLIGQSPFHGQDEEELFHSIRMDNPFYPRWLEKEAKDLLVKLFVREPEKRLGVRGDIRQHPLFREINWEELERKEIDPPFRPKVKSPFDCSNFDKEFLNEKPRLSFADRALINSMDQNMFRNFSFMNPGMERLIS

pIC50, > 7.00:
CCN(CCCN)Cc1cccc(-c2ccnc(NCCc3ccc(O)cc3)n2)c1 [Compound 1, (4-{2-[4-(3-{[(3-Amino-propyl)-ethyl-amino]-methyl}-phenyl)-pyrimidin-2-ylamino]-ethyl}-phenol)]
CS(=O)(=O)N(CCCN)Cc1cccc(-c2ccnc(NCCc3ccc(O)cc3)n2)c1 [Compound 2, N-(3-Amino-propyl)-N-(3-{2-[2-(4-hydroxy-phenyl)-ethylamino]-pyrimidin-4-yl}-benzyl)-methanesulfonamide]
CS(=O)(=O)N(CCCN)Cc1cccc(-c2ccnc(NCCc3ccc(N)cc3)n2)c1 [Compound 5, N-(3-{2-[2-(4-Amino-phenyl)-ethylamino]-pyrimidin-4-yl}-benzyl)-N-(3-amino-propyl)-methanesulfonamide]
CS(=O)(=O)N(CCCN)Cc1cccc(-c2ccnc(NCCc3ccc(O)c(O)c3)n2)c1 [Compound 6, N-(3-Amino-propyl)-N-(3-{2-[2-(3,4-dihydroxy-phenyl)-ethylamino]-pyrimidin-4-yl}-benzyl)-methanesulfonamide]
COc1ccc(CCNc2nccc(-c3cccc(CN(CCCN)S(C)(=O)=O)c3)n2)cc1O [Compound 8, N-(3-Amino-propyl)-N-(3-{2-[2-(3-hydroxy-4-methoxy-phenyl)-ethylamino]-pyrimidin-4-yl}-benzyl)-methanesulfonamide]
CS(=O)(=O)N(CCCN)Cc1cccc(-c2ccnc(NCCc3ccc(O)c([N+](=O)[O-])c3)n2)c1 [Compound 22, N-(3-Amino-propyl)-N-(3-{2-[2-(4-hydroxy-3-nitro-phenyl)-ethylamino]-pyrimidin-4-yl}-benzyl)-methanesulfonamide]
CS(=O)(=O)N(CCCN)Cc1cccc(-c2ccnc(NCCc3ccc(O)c(Cl)c3)n2)c1 [Compound 24, N-(3-Amino-propyl)-N-(3-{2-[2-(3-chloro-4-hydroxy-phenyl)-ethylamino]-pyrimidin-4-yl}-benzyl)-methanesulfonamide]
CS(=O)(=O)N(CCCN)Cc1cccc(-c2ccnc(NCCc3cccc(O)c3)n2)c1 [Compound 26, N-(3-Amino-propyl)-N-(3-{2-[2-(3-hydroxy-phenyl)-ethylamino]-pyrimidin-4-yl}-benzyl)-methanesulfonamide]
CS(=O)(=O)N(CCCN)Cc1cccc(-c2ccnc(NCCc3cc(Cl)c(O)c(Cl)c3)n2)c1 [Compound 29, N-(3-Amino-propyl)-N-(3-{2-[2-(3,5-dichloro-4-hydroxy-phenyl)-ethylamino]-pyrimidin-4-yl}-benzyl)-methanesulfonamide]
CS(=O)(=O)N(CCCN)Cc1cccc(-c2ccnc(NCCc3ccc(O)c(Br)c3)n2)c1 [Compound 36, N-(3-Amino-propyl)-N-(3-{2-[2-(3-bromo-4-hydroxy-phenyl)-ethylamino]-pyrimidin-4-yl}-benzyl)-methanesulfonamide]
Oc1ccc(CCNc2nccc(-c3cccc(NC4CCNCC4)c3)n2)cc1 [Compound 38, 4-(2-{4-[3-(Piperidin-4-ylamino)-phenyl]-pyrimidin-2-ylamino}-ethyl)-phenol]
COc1cc(CCNc2nccc(-c3cccc(NC4CCNCC4)c3)n2)ccc1O [Compound 40, 2-Methoxy-4-(2-{4-[3-(piperidin-4-ylamino)-phenyl]-pyrimidin-2-ylamino}-ethyl)-phenol]
Oc1ccc(CCNc2nccc(-c3cccc(NC4CCNCC4)c3)n2)cc1Cl [Compound 45, 2-Chloro-4-(2-{4-[3-(piperidin-4-ylamino)-phenyl]-pyrimidin-2-ylamino}-ethyl)-phenol]
Oc1c(Cl)cc(CCNc2nccc(-c3cccc(NC4CCNCC4)c3)n2)cc1Cl [Compound 48, 2,6-Dichloro-4-(2-{4-[3-(piperidin-4-ylamino)-phenyl]-pyrimidin-2-ylamino}-ethyl)-phenol]
Oc1cccc(CCNc2nccc(-c3cccc(NC4CCNCC4)c3)n2)c1 [Compound 49, 3-(2-{4-[3-(Piperidin-4-ylamino)-phenyl]-pyrimidin-2-ylamino}-ethyl)-phenol]
Oc1ccc(CCNc2nccc(-c3cccc(NC4CCNCC4)c3)n2)cc1Br [Compound 50, 2-Bromo-4-(2-{4-[3-(piperidin-4-ylamino)-phenyl]-pyrimidin-2-ylamino}-ethyl)-phenol]
Oc1ccc(CCNc2nccc(-c3cccc(NC4CCCNC4)c3)n2)cc1 (centres unmarked) [Compound 53, 4-(2-{4-[3-(Piperidin-3-ylamino)-phenyl]-pyrimidin-2-ylamino}-ethyl)-phenol]
Oc1ccc(CCNc2nccc(-c3cccc(NC4CCCNC4)c3)n2)cc1Cl (centres unmarked) [Compound 54, 2-Chloro-4-(2-{4-[3-(piperidin-3-ylamino)-phenyl]-pyrimidin-2-ylamino}-ethyl)-phenol]
Oc1ccc(CCNc2nccc(-c3cccc(NC4CCNC4)c3)n2)cc1 (centres unmarked) [Compound 55, 4-(2-{4-[3-(Pyrrolidin-3-ylamino)-phenyl]-pyrimidin-2-ylamino}-ethyl)-phenol]
CS(=O)(=O)N(CCCNC(=O)c1ccccn1)Cc1cccc(-c2ccnc(NCCc3ccc(O)cc3)n2)c1 [Compound 60, Pyridine-2-carboxylic acid {3-[(3-{2-[2-(4-hydroxy-phenyl)-ethylamino]-pyrimidin-4-yl}-benzyl)-methanesulfonyl-amino]-propyl}-amide]
Cc1ncccc1C(=O)NCCCN(Cc1cccc(-c2ccnc(NCCc3ccc(O)cc3)n2)c1)S(C)(=O)=O [Compound 62]
CS(=O)(=O)N(CCCNS(=O)(=O)Cc1ccccc1)Cc1cccc(-c2ccnc(NCCc3ccc(O)cc3)n2)c1 [Compound 64, N-{3-[(3-{2-[2-(4-Hydroxy-phenyl)-ethylamino]-pyrimidin-4-yl}-benzyl)-methanesulfonyl-amino]-propyl}-C-phenyl-methanesulfonamide]
CS(=O)(=O)N(CCCNS(=O)(=O)c1ccccc1)Cc1cccc(-c2ccnc(NCCc3ccc(O)cc3)n2)c1 [Compound 65, N-{3-[(3-{2-[2-(4-Hydroxy-phenyl)-ethylamino]-pyrimidin-4-yl}-benzyl)-methanesulfonyl-amino]-propyl}-benzenesulfonamide]
O=C(NCC1CCNC1)c1cccc(-c2ccnc(NCCc3ccc(O)cc3)n2)c1 (centres unmarked) [Compound 67, 3-{2-[2-(4-Hydroxy-phenyl)-ethylamino]-pyrimidin-4-yl}-N-pyrrolidin-3-ylmethyl-benzamide]
NCCCNC(=O)c1cccc(-c2ccnc(NCCc3ccc(O)cc3)n2)c1 [Compound 68, N-(3-Amino-propyl)-3-{2-[2-(4-hydroxy-phenyl)-ethylamino]-pyrimidin-4-yl}-benzamide]
CCN(Cc1cccnc1)c1cccc(-c2ccnc(NCCc3ccc(O)cc3)n2)c1 [Compound 80, 4-(2-{4-[3-(Ethyl-pyridin-3-ylmethyl-amino)-phenyl]-pyrimidin-2-ylamino}-ethyl)-phenol]
